Experimental data: patent publication US20050215517A1, “Use of an anti-endotoxin drug in the prevention and treatment of disease” (priority 1999, published 2005)

Test system: LPS-induced IL-6 release
Experiment: Inhibition of LPS-induced IL-6 release in ex vivo blood samples during intravenous infusion of E5564
Design: species or system beagle dogs
Method: (§1) FIG. 5 is a pair of graphs showing ex vivo analysis of active E5564 during intravenous infusion. Activity of E5564 was determined during intravenous infusion of 0.24 mg/kg/hour E5564 (□,∘) or 2.4 mg/kg/hour E5564 (▪,●) into female (upper panel) or male (lower panel) beagle dogs. At the indicated times, blood was drawn and analyzed for E5564 activity by adding 1 ng/ml LPS, incubating for three hours at 37° C., and assaying the plasma fraction for IL-6 by bioassay, as is described in the Materials and Methods section (below). Each value represents the mean±standard deviation of samples assayed in duplicate from each animal. The zero hour sample was taken prior to infusion.
as §1, with “FIG. 6” for “FIG. 5”, “adding 10” for “adding 1”
as §1, with “FIG. 7” for “FIG. 5”, “adding 100” for “adding 1”
To assess the activity of E5564 over multiple time points from a single treated animal, we employed an ex vivo assay, as is mentioned above, to test for active drug in samples of blood drawn from a treated animal. Samples of blood were drawn from beagle dogs infused with E5564 over a period of 24 hours. One dog of each sex was tested under each of two dose regimens: a low dose of 0.24 mg/kg/hour and a high dose of 2.4 mg/kg/hour.
Blood samples were taken from these dogs at predose, 4 hours after initiation of infusion, and 24 hours after initiation of infusion. The blood samples were challenged with 0, 1, 10, or 100 ng/ml LPS, and then incubated for three hours. The samples were then analyzed for activation by LPS, using induction of cytokine response as a readout.
LPS from Escherichia coli (0111:B4) was purchased from List Biologicals (Campbell, Calif.). LPS was dissolved in sterile water at 1 mg/ml and stored at −20° C. Prior to use, LPS was sonicated in a bath sonicator (VW-380; Heat Systems-Ultrasonics Inc., Farmingdale, N.Y.) for 1-2 minutes immediately before use and diluted into Ca^2+, Mg^2+ free Hanks balanced salt solution (HBSS; Sigma).
Dogs were treated with E5564 (0.24 or 2.4 mg/kg/hour) dissolved in a mixture of placebo solution (10% lactose monohydrate, 0.045% Na2HPO4.7H2O, 0.035% NaH2PO4.H2O, 0.006% NaOH; pH 7.4±0.3) and 5% dextrose (1:4) by intravenous infusion via indwelling catheter for 24 hours at a rate of 2 mg/kg/hour.
(for time zero samples), or incubated with the indicated concentrations of LPS for three hours. Plasma was then prepared and immediately frozen at −80° C. Samples were stored at −80° C. until assay.
B9 cells were the gift of Dr. Mary Rodrick (Beth Israel Deaconess Hospital, Boston, Mass.). They were grown in Iscove's DMEM medium containing 5% fetal bovine serum (FBS), […] 2-mercaptoethanol, 2 mM L-glutamine, and 100 U/ml penicillin/streptomycin. […]

SMILES: CCCCCC/C=C\CCCCCCCCCC(=O)N[C@H]1[C@H](OC[C@H]2O[C@H](OP(=O)(O)O)[C@H](NC(=O)CC(=O)CCCCCCCCCCC)[C@@H](OCCCCCCCCCC)[C@@H]2O)O[C@H](COC)[C@@H](OP(=O)(O)O)[C@@H]1OCC[C@@H](CCCCCCC)OC [E5564, α-D-Glucopyranose, 3-O-decyl-2-deoxy-6-O-[2-deoxy-3-O-[(3R)-3-methoxydecyl)-6-O-methyl-2-[[(11Z)-1-oxo-11-octadecenyl)amino]-4-O-phosphono-β-D-glucopyranosyl]-2-[(1,3-dioxotetradecyl)amino]-,1-(dihydrogen phosphate)]
- Inhibition of response to LPS (IL-6) vs predose (infusion 0.24 mg/kg/hour, 1 ng/ml LPS, 4 hours after beginning infusion): ≥ 98%
- Inhibition of response to LPS (IL-6) vs predose (infusion 0.24 mg/kg/hour, 1 ng/ml LPS, end of infusion (24 hours)): complete
- Inhibition of response to LPS (IL-6) vs predose (infusion 0.24 mg/kg/hour, 10 ng/ml LPS, end of infusion (24 hours)): ~85%
- Maximum inhibition of response to LPS (IL-6) vs predose (infusion 0.24 mg/kg/hour, 100 ng/ml LPS, end of infusion (24 hours)): 34-52%
- Inhibition of response to LPS (IL-6) vs predose (infusion 2.4 mg/kg/hour, 1 ng/ml LPS, 4 hours after beginning infusion): complete inhibition
- Inhibition of response to LPS (IL-6) vs predose (infusion 2.4 mg/kg/hour, 1 ng/ml LPS, end of infusion (24 hours)): complete
- Inhibition of response to LPS (IL-6) vs predose (infusion 2.4 mg/kg/hour, 10 ng/ml LPS, 4 hours): nearly completely inhibited
- Inhibition of response to LPS (IL-6) vs predose (infusion 2.4 mg/kg/hour, 10 ng/ml LPS, end of infusion (24 hours)): complete
- Inhibition of response to LPS (IL-6) vs predose (infusion 2.4 mg/kg/hour, 100 ng/ml LPS, 4 hours): nearly completely inhibited
- Inhibition of response to LPS (IL-6) vs predose (infusion 2.4 mg/kg/hour, 100 ng/ml LPS, end of infusion (24 hours)): > 90%
